Experiments:
[1] = tested on: T-47D breast cancer cells; assay: Colony formation (plating efficiency) after freezing and thawing, T-47D; type: cell-based, human; details: Standard freezing with 5% DMSO (30 min -20° C., 45 min ~-80° C., liquid N2)
Description: (§1) The objective was to test the importance of the duration of ice-formation time (=time to remove latent heat during ice formation) of seed stocks of two established human cells lines: T-47D breast cancer cells and T98G glioblastoma cells, for viability after thawing. In addition to variation in ice-forming time two variables have been tested: • Cells frozen without DMSO or with 5% DMSO • Cells frozen within a mixed strong magnetic (0.2-0.3 T)-pulsing electric (20V (220V/m)-20kHZ) field (hereinafter termed “Strong MAG/PEF”), or just outside the Field Box in a weak magnetic (0,005-0,008T)-pulsing electric (7-16V (75-185V/m)-20 kHz) (hereinafter “Weak MAG/PEF) field.
(§2) The cells of both types were grown as monolayer cultures in RPMI 1640 medium (Gibco, Rockwill, Md., USA) supplemented with 10% fetal calf serum (Gibco), 2 mM L-glutamine, 200 units/I insulin and 1% penicillin/streptomycin (Gibco). […]
(§3) For each cell type separate preparation of samples for freezing was performed by standard trypsin treatment of several flasks and pooling of the cells after removal of the trypsin solution and re-suspending of the cells in RPMI-medium. After pooling the cell numbers per ml were accurately counted on a flow cytometer and thereafter dilutions of cell suspensions suitable to obtain the concentration of cells desired for transfer to the cryo-tubes were made for each cell type. […]

[2] = tested on: T98G glioblastoma cells; assay: Colony formation (plating efficiency) after freezing and thawing, T98G; type: cell-based, human; details: Standard freezing with 5% DMSO (30 min -20° C., 45 min ~-80° C., liquid N2); T-98G
Description: as §1, §2, §3

[3] = tested on: adherent CHO cells (chinese hamster ovary cells K1); assay: Colony formation (plating efficiency) after freezing and thawing, adherent CHO cells; type: cell-based
Description: The objective was to test the importance of the duration of ice-formation (=time to remove latent heat during ice formation) of seed stocks of adherent CHO cells (chinese hamster ovary cells K1 for viability after thawing. In addition to variation in ice-forming time two variables have been tested: • Cells frozen without DMSO or with 5% DMSO • Cells frozen within a mixed strong magnetic (0,2-0,3T)-pulsing electric (20V (220V/m)-20kHZ) field (hereinafter termed “Strong MAG/PEF”), or just outside the Field Box in a weak magnetic (0,005-0,008T)-pulsing electric (7-16V (75-185V/m)-20 kHz) (hereinafter “Weak MAG/PEF) field.
(§4) The cells were grown in 162 cm^2 flasks as monolayer cultures in Ham's F12 medium supplemented with 10% fetal calf serum. The cells were kept in continuous exponential growth by re-culturing twice per week. Harvest for re-culturing or for freezing was done by removing the growth medium, rinsing two times in 1.5 ml trypsin EDTA solution (0.05% and 0.02% respectively), and incubating cultures for 5 min at 37° C. in the residual trypsin solution. The trypsinization was stopped by adding Ham's F12 medium with FBS.
(§5) Cells were resuspended and counted using Countess Automated Cell counter with Trypan Blue Stain (0.4%) to estimate the cell viability.
(§6) The cell suspension was transferred to 15 ml tube and centrifuged (200 g, 5 min, 4° C.). The supernatant was removed and the cell pellets were resuspended in cold FBS to give a final concentration of 2×10^6 cells/ml. 0.5 ml of the cell suspension was transferred to 2 ml cryo-tube. Equal volume (0.5 ml) freezing medium with or without DMSO-medium was added to each cryotube to give a final 5% concentration of DMSO and 1×10^6 cells per ml in each tube.
After 10 days in liquid nitrogen samples were thawed and cells seeded for colony formation. There were 3 parallel flasks for each sample tested. The control was the traditional procedure used in the laboratory with 5% DMSO and with 30 min in −20° C., 45 min in ˜−80° C. and final storage in liquid N2.
The flasks were incubated for colony formation in a Steri-cult 200 incubator operated at 37° C. and with 5% CO2 in the atmosphere. Incubation continued for six days. For counting of macroscopic colonies cells were fixed in ethanol and stained with methylene blue.

[4] = tested on: cells; assay: MTS bioassay, viability after freezing and thawing; type: cell-based
Description: […] the presence of a combined magnetic (0.2-0.3 T)-pulsing electric fields (20V (220V/m)-20kHZ), in the presence or absence of DMSO (0-5%) measured as the fraction of cells retaining their full proliferative capacity after freezing, monitored with a rapid bioassay-MTS-as an alternative to conventional plating efficiency testing.
The experiment included the standard method used by most researchers, i.e. freezing with 5% DMSO in a “Nalgene Mr Frosty” apparatus (Merck KgaA, Germany), operated with a 15 minutes phase-transition time corresponding to the state of the art freezing rate of 1 degree per minute.
as §4, with “grown to 70% confluence” for “grown”, “serum (FBS).” for “serum.”
as §5
as §6, with “(200xg,” for “(200 g,”
After 15 days in liquid nitrogen samples were thawed and cells seeded for MTS assay as follows: • cells were transferred to 15 ml tubes containing 4 ml culture media (total volume of 4+1=5 ml) and centrifuged at 200×g, 10 min, 4° C. • cells were resuspended in 1 ml media with 1% FBS and further diluted 10 times to give a concentration of 1×10^5/ml based on the initial counting before freezing. • After dilution, 0.2 ml of cells from each freezing condition was seeded in 96 well plates and the plates were incubated at 37° C. until the next day. • After the overnight incubation, media was removed and 0.1 ml of a fresh 1% FBS media was added. 20 μl of MTS reagent was added. • Finally, OD490 values were read after 1-4 hours incubation. The number of viable cells/well were calculated based on a standard curve generated using ongoing cell cultures. The calculation was performed in GraphPad Prism 8, using four parameter nonlinear logistic regression and the curve fitting function.

C[S+](C)[O-] [DMSO, Dimethyl sulfoxide]
Plating efficiency—PE (%) [1]: 80-90% | Plating efficiency—PE (%) [2]: 57% | PE: plating efficiency (%) ([3]; 5% DMSO, ice formation time 1 min 55 sec, Strong MAG/PEF): 88% | PE: plating efficiency (%) ([3]; 5% DMSO, ice formation time 1 min 55 sec, Weak MAG/PEF): 98% | PE: plating efficiency (%) ([3]; 5% DMSO, ice formation time 4 min 8 sec, Weak MAG/PEF): 95% | PE: plating efficiency (%) ([3]; 5% DMSO, ice formation time 5 min 7 sec, Strong MAG/PEF): 72% | PE: plating efficiency (%) ([3]; 5% DMSO, ice formation time 5 min 7 sec, Weak MAG/PEF): 64% | PE: plating efficiency (%) ([3]; 4 min): 107 (artefacted) % | difference in viability between 2 min and 3 min (optimal point) phase-transition time ([4]; 1% DMSO): 13% | difference in viability between 3 min and 4 min phase-transition time ([4]; 1% DMSO): 39% | percentage viability after freezing and thawing ([4]; 1% DMSO, phase-transition time 1.4 min, magnetic 0.2-0.3 T, pulsing electric field): 8% | percentage viability after freezing and thawing ([4]; 1% DMSO, phase-transition time 1.8 min, magnetic 0.2-0.3 T, pulsing electric field): 26% | percentage viability after freezing and thawing ([4]; 1% DMSO, phase-transition time 2 min, magnetic 0.2-0.3 T, pulsing electric field): 36% | percentage viability after freezing and thawing ([4]; 1% DMSO, phase-transition time 2.2 min, magnetic 0.2-0.3 T, pulsing electric field): 35% | percentage viability after freezing and thawing ([4]; 1% DMSO, phase-transition time 2.4 min, magnetic 0.2-0.3 T, pulsing electric field): 41% | percentage viability after freezing and thawing ([4]; 1% DMSO, phase-transition time 2.6 min, magnetic 0.2-0.3 T, pulsing electric field): 45% | percentage viability after freezing and thawing ([4]; 1% DMSO, phase-transition time 2.7 min, magnetic 0.2-0.3 T, pulsing electric field): 47% | percentage viability after freezing and thawing ([4]; 1% DMSO, phase-transition time 3 min, magnetic 0.2-0.3 T, pulsing electric field): 47% | percentage viability after freezing and thawing ([4]; 1% DMSO, phase-transition time 4 min, magnetic 0.2-0.3 T, pulsing electric field): 4% | percentage viability after freezing and thawing ([4]; 1% DMSO, phase-transition time 5.5 min, magnetic 0.2-0.3 T, pulsing electric field): 4% | percentage viability after freezing and thawing ([4]; 2% DMSO, phase-transition time 1.4 min, magnetic 0.2-0.3 T, pulsing electric field): 36% | percentage viability after freezing and thawing ([4]; 2% DMSO, phase-transition time 1.8 min, magnetic 0.2-0.3 T, pulsing electric field): 57% | percentage viability after freezing and thawing ([4]; 2% DMSO, phase-transition time 2 min, magnetic 0.2-0.3 T, pulsing electric field): 53% | percentage viability after freezing and thawing ([4]; 2% DMSO, phase-transition time 2.2 min, magnetic 0.2-0.3 T, pulsing electric field): 61% | percentage viability after freezing and thawing ([4]; 2% DMSO, phase-transition time 2.4 min, magnetic 0.2-0.3 T, pulsing electric field): 52% | percentage viability after freezing and thawing ([4]; 2% DMSO, phase-transition time 2.6 min, magnetic 0.2-0.3 T, pulsing electric field): 63% | percentage viability after freezing and thawing ([4]; 2% DMSO, phase-transition time 2.7 min, magnetic 0.2-0.3 T, pulsing electric field): 65% | percentage viability after freezing and thawing ([4]; 2% DMSO, phase-transition time 3 min, magnetic 0.2-0.3 T, pulsing electric field): 66% | percentage viability after freezing and thawing ([4]; 2% DMSO, phase-transition time 4 min, magnetic 0.2-0.3 T, pulsing electric field): 27% | percentage viability after freezing and thawing ([4]; 2% DMSO, phase-transition time 5.5 min, magnetic 0.2-0.3 T, pulsing electric field): 17% | percentage viability after freezing and thawing ([4]; 5% DMSO, phase-transition time 1.8 min, magnetic 0.2-0.3 T, pulsing electric field): 76% | percentage viability after freezing and thawing ([4]; 5% DMSO, phase-transition time 2.2 min, magnetic 0.2-0.3 T, pulsing electric field): 74% | percentage viability after freezing and thawing ([4]; 5% DMSO, phase-transition time 2.4 min, magnetic 0.2-0.3 T, pulsing electric field): 90% | percentage viability after freezing and thawing ([4]; 5% DMSO, phase-transition time 2.6 min, magnetic 0.2-0.3 T, pulsing electric field): 98% | percentage viability after freezing and thawing ([4]; 5% DMSO, phase-transition time 2.7 min, magnetic 0.2-0.3 T, pulsing electric field): 97% | percentage viability after freezing and thawing ([4]; 5% DMSO, phase-transition time 3 min, magnetic 0.2-0.3 T, pulsing electric field): 97% | percentage viability after freezing and thawing ([4]; 5% DMSO, phase-transition time 4 min, magnetic 0.2-0.3 T, pulsing electric field): 99% | percentage viability after freezing and thawing ([4]; 5% DMSO, phase-transition time 5.5 min, magnetic 0.2-0.3 T, pulsing electric field): 99% | percentage viability after freezing and thawing ([4]; 5% DMSO, phase-transition time 15 min, standard method, Nalgene Mr Frosty, 1 degree per minute): 68%
